Measured values reported in patent US20060167226A1, “Mutations of voltage-gated ion channnels that allow them to express a voltage-independent phenotype and an improved method to use the same” (Cardiome Pharma Corp., priority 2002, published 2006).

Target: T1, Kv1.5m channels (Homo sapiens, UniProt P22460, P513D/R400Q/R403Q/R409Q)
T1 construct: The coding region of the human gene for Kv1.5 was subcloned into pYC2 (Invitrogen) as an approximately 2 kb HindIII-NotI fragment; expressed in transfected cells; host or cells: Saccharomyces cerevisiae trk1 trk2 strain WΔ3, plasmid pYC2 (GAL1 promoter) or a PGK promoter vector
Experiment: Liquid culture growth assay of trk1 trk2 yeast (WΔ3) expressing Kv1.5m in low potassium media
Format: cell-based
Settings: for OD600 (Batch A) / OD600 (Batch B): QPD WΔ3 transformants, liquid culture; for Block of growth of the trk1 trk2 strain expressing Kv1.5m on low potassium: low potassium media
Description: Expression of the cloned inserts is under the control of either the constitutively active PGK promoter or the inducible GAL1 promoter. The latter requires growth in/on media containing galactose as sole carbon source. The screening method involves adding the compound to be screened to the growth media of trk1 trk2 yeast expressing the modified potassium channel and determining whether the yeast's growth is inhibited. The tested compound may be incorporated in liquid or solid growth media or added ectopically to solid growth media.
Our yeast strain, when expressing the mutant Kv1.5 channel, is capable of consistent growth on as little as 0.5 mM potassium. Very few pseudorevertants are capable of growth at this potassium concentration; the vast majority of liquid cultures of the parent strain show absolutely no growth even after more than 24 hours culture. When expressing the mutant Kv1.5 channel, growth is robust and can be blocked by known Kv1.5 channel blockers.
Detailed Description of the Methods Required for a Liquid Culture Media Assay of Kv1.5:
Low salt media was made according to Wickerham, L. J. (1951) (Taxonomy of Yeasts. United States Department of Agriculture Technical Bulletin No. 1029), except that the final potassium phosphate concentration was 0.5 mM.
1. Streak out WΔ3 and Kv1.5m transformed WΔ3 (“Kv1.5m”) culture from frozen stock onto YPD+100 mM K+ and YNB+100 mM K+, ura-agar media plates, respectively, for fresh colonies.
2. The day before doing the drug assay, use the fresh colonies to grow overnight cultures of WΔ3 in liquid YPD+100 mM K+ media, and grow “Kv1.5 m” in liquid YNB+100 mM K+, ura-media.
3. Collect the overnight yeast cells and wash them in sterile distilled water. Resuspend WΔ3 cells in the same volume of LS+100 mM K++ uracil media, and resuspend “Kv1.5 m” cells in the same volume of LS+0.5 mM K+, ura-media. These are the seed cultures for the drug assay.
4. In Falcon 2059 tubes, prepare various concentrations of drugs in LS+0.5 mM K+, ura-media or LS+100 mM K++ uracil media, and also set up solvent controls for each drug concentrations used. Here is an example:
Drug X stock solution (10 mM) is dissoved in 0.5% Tween-20. Final concentrations that we test are 1 mM, 0.1 mM, and 0.01 mM.
Then 250 micro liter of the seed culture of “Kv1.5m” from step 3 is inoculated into each tube.
5. Measure the starting OD600 by taking out 0.1 ml of the sample from each tube and diluting […] for measuring. Grow cultures at […] shaker at 300 rpm.
6. Get 0.1 ml of samples from each tube and measure their OD600 at 2 hr, 4 hr, 6 hr, 8 hr, and 24 hr.

T1 sequence (P22460 whole entry R400Q/R403Q/R409Q/P513D, the tested form may be a part): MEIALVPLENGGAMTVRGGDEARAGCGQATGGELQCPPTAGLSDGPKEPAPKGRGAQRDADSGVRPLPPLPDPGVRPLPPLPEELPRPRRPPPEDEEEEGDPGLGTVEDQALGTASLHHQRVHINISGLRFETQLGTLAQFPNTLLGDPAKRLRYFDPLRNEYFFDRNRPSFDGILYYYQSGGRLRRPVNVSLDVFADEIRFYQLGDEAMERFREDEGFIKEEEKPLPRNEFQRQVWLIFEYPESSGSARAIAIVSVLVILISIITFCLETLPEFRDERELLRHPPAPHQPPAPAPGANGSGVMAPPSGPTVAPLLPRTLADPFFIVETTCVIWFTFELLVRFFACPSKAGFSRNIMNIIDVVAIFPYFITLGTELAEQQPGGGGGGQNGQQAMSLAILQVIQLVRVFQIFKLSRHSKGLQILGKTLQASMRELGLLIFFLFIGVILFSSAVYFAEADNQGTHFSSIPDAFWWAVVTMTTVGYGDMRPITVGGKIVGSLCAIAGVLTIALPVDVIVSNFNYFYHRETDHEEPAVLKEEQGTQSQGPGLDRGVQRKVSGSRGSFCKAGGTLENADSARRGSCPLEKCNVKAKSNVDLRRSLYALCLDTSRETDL

## Nc1ccncc1 [Compound 4-AP, 4-aminopyridine]
1 mM 4-AP, both batches, read-out: reduction at OD600 (inhibition of yeast growth)
  inhibition at 1000 µM: 50%
LS + 0.5 mM K+ + 0.1 mM 4-AP
  OD600 (Batch A): 2.55
  OD600 (Batch B): 2.5
LS + 0.5 mM K+ + 1 mM 4-AP
  OD600 (Batch A): 1.11
  OD600 (Batch B): 1.11
  Block of growth of the trk1 trk2 strain expressing Kv1.5m on low potassium: can block the Kv1.5m channels
Listed as 4-aminopyridine
  Block of growth of the trk1 trk2 strain expressing Kv1.5m on low potassium: could be blocked
